Test results from ChEMBL document CHEMBL2331210, “New 2-benzylsulfanyl-nicotinic acid based 1,3,4-oxadiazoles: their synthesis and biological evaluation” (2013).
In brackets after ≈: the same amount, converted by molar mass.

Key:
Format in all cases: functional
Aspergillus niger = experiment: Antimicrobial activity against Aspergillus niger MTCC 282 assessed as growth inhibition measured after overnight incubation by broth dilution method
Candida albicans = experiment: Antimicrobial activity against Candida albicans MTCC 227 assessed as growth inhibition measured after overnight incubation by broth dilution method
Aspergillus clavatus = experiment: Antimicrobial activity against Aspergillus clavatus MTCC 1323 assessed as growth inhibition measured after overnight incubation by broth dilution method
Staphylococcus aureus = experiment: Antimicrobial activity against Staphylococcus aureus MTCC 96 assessed as growth inhibition measured after overnight incubation by broth dilution method
[1] = tested on: Mycobacterium tuberculosis; experiment: Antitubercular activity against Mycobacterium tuberculosis H37Rv assessed as growth inhibition after 12 to 28 days by L.J. agar MIC method
Pseudomonas aeruginosa = experiment: Antimicrobial activity against Pseudomonas aeruginosa MTCC 2488 assessed as growth inhibition measured after overnight incubation by broth dilution method
Escherichia coli = experiment: Antimicrobial activity against Escherichia coli MTCC 443 assessed as growth inhibition measured after overnight incubation by broth dilution method
Streptococcus pyogenes = experiment: Antimicrobial activity against Streptococcus pyogenes MTCC 442 assessed as growth inhibition measured after overnight incubation by broth dilution method

Structure (SMILES) | MIC (Aspergillus niger) | MIC (Candida albicans) | MIC (Aspergillus clavatus) | MIC (Staphylococcus aureus) | growth inhibition (GI) [1] | MIC ([1]; Mycobacterium tuberculosis, H37Rv) | MIC (Pseudomonas aeruginosa) | MIC (Escherichia coli) | MIC (Streptococcus pyogenes)
COC1=CC(=O)C[C@@H](C)[C@]12Oc1c(Cl)c(OC)cc(OC)c1C2=O [GRISEOFULVIN] | 100 µg/mL (≈ 283 µM) | 500 µg/mL (≈ 1420 µM) | 100 µg/mL (≈ 283 µM) |  |  |  |  |  | 
NNC(=O)c1cccnc1SCc1ccccc1 | 500 µg/mL (≈ 1930 µM) | 500 µg/mL (≈ 1930 µM) | 250 µg/mL (≈ 964 µM) | 125 µg/mL (≈ 482 µM) | 99% | 250 µg/mL (≈ 964 µM) | 200 µg/mL (≈ 771 µM) | 125 µg/mL (≈ 482 µM) | 125 µg/mL (≈ 482 µM)
